In ChEMBL document CHEMBL1201862, “PubChem BioAssay data set” (2004):
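Compound exposure: 48 hours, 5 concentrations, 96-well plates. At the GI50, growth is halved.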 Active and inactive are the calls of the source. Cut-off read from the data, not from the text of the source: active = GI50 up to about 1.1 µM and inactive = higher.

What was measured:
Assay in all cases: NCI anticancer screen, dose series, 48 h
M19-MEL = system: M19-MEL
DMS-273 = system: DMS-273
DMS-114 = system: DMS-114
SNB-78 = system: SNB-78
RXF 631 = system: RXF 631
DLD-1 = system: DLD-1
XF498 = system: XF498
KM-20L2 = system: KM-20L2
HOP-18 = system: HOP-18

Measured: GI50

COC(=O)CC(NC(=O)OCc1ccccc1)C(C(C)=O)C(=O)OCc1ccccc1 (centres undefined)
inactive: M19-MEL > 31.6 µM | DMS-273 > 31.6 µM | DMS-114 > 31.6 µM | SNB-78 > 31.6 µM | RXF 631 > 10 µM | DLD-1 > 31.6 µM | XF498 > 10 µM | KM-20L2 > 31.6 µM | HOP-18 > 31.6 µM
